Entries after “also recorded” stand apart in the source; their conditions may differ.
Assays:
R6/2 mice = assay: 45-day drinking water and PO study of ferrostatins in R6/2 mice (weight, survival, Rotarod, Catwalk, LC/MS); format: in vivo
Procedure: Ferrostatins and 42 μM Citric acid were dissolved in 5% DMSO, 5% ethanol, and 90% PBS rendering a final concentration of 0.29 mg/mL of each ferrostatin in drinking water. The mice drink ˜2 mL water per day, and the resulting dosage was around 20-30 mg/kg/day. R6/2 mice at ˜6-7 weeks of age were treated via drinking water and PO at 20 mg/kg. Mice were weighed daily, the weight recorded, and the change in body weight compared to the baseline, pre-injection weight was calculated. Any mouse that lost more than 20% of its baseline body weight for three consecutive days was euthanized prior to the completion of the study. Mice were euthanized by CO2 asphyxiation for 3 min after administration. Approximately 0.5 mL of blood was collected via cardiac puncture and immediately put in K3 EDTA microtubes and kept on ice. Brains were harvested, placed in Eppendorf tubes, and frozen on dry ice. Blood samples were centrifuged for 10 min at 2,100×g at 4° C., then plasma was transferred to a clean tube and frozen on dry ice.
Brain samples were weighed and placed in hard tissue homogenizing tubes. Two volume of HPLC grade methanol was added to make a solution and homogenized using the Omni Bead Ruptor 4 at speed 5 for two 30-second runs. The product was aliquoted and diluted by adding 900 μL HPLC grade ice-cold methanol. After centrifugation for 20 mins at 14,000×g at 4° C., supernatant was collected in a clean vial and dried by vacuum centrifugation (GeneVac).
Prior to LC-MS analysis, the samples were resuspended in 100 μL methanol and centrifuged for 5 minutes at 14,000×g at 4° C. The supernatant was analyzed via SYNAPT High Resolution Mass Spectrometer.
Rotarod “Linear Incline” experiment was performed with 11- to 12-week-old R6/2 mice at Day 25 with a rotations per minute (RPM) ramp over a 300s duration, start speed of 5 RPM, and max speed of 40 RPM. Mice were acclimated to testing room for 30 minutes prior to experimentation. Latency to fall was recorded in seconds for each mouse, and lanes were cleaned with 70% ethanol between mice.
The Catwalk apparatus (Noldus Information Technology, Leesburg, VA) consisted of an illuminated walled glass walkway (130 cm×10 cm) and a high-speed camera underneath. Mice were allowed 30 minutes to acclimate to the testing room, then behavioral task was performed with 11- to 12-week-old R6/2 mice on Day 25. Mice were placed on the glass walkway and allowed to ambulate freely across the runway towards the goal box at the end of the walkway. A goal box blocked the other end of the walkway, forcing the mouse to return to the entryway. Each mouse completed Catwalk runs until three compliant runs (fluent crossings without stopping/hesitation), were detected and verified, running for as long as needed to do so. Behavioral measures were calculated using Noldus Gait Analysis Software, and pairing and further comparisons were done using RM one-way ANOVAs.
The pharmacokinetic properties of TH-4-55-2 were initially assessed in vivo, focusing on its BBB distribution. Subsequent investigations involved TH-4-67 and TH-2-31. […] This regimen continued for 45 days, during which changes in body weight were monitored (FIG. 29A). Mouse body weights that fell under 20% of baseline measurements were sacrificed, while spontaneous deaths over the course of the study were monitored (FIG. 29B). Motor coordination was assessed via Rotarod behavior measurements (FIG. 30), and gait analysis was conducted using CatWalk (FIGS. 31A-31B).

[1] = test system: R6/2 Huntington's mouse model; assay: 30-day toxicity study in symptomatic R6/2 and wild type mice; format: in vivo; conditions: for tolerability of chronic administration: 20 mg/kg daily for 30 days, IP and PO; for deaths after 30 days / protection against body weight loss: R6/2 mice; for deaths after 30 days: 20 mg/kg daily
Procedure: In order to assess whether ferrostatins can be used in a long-term efficacy, we performed a toxicity study with the three analogs to determine whether symptomatic R6/2 mice could tolerate chronic administration of analog. Use TH-4-55-2 as an example: symptomatic R6/2 mice of both sexes at ˜10 weeks of age were dosed daily with 20 mg/kg TH-4-55-2 via both IP and oral gavage for 30 days. Body weight was measured and recorded and the % change in body weight from the baseline calculated. Any mice that lost more than 20% of their body weight for three days were euthanized prior to the completion of the study.
Ferrostatin analogs were dissolved in 5% DMSO/95% of 1:1 [(65% v/v of 25% w/v 2-hydroxypropyl-β-cyclodextrin dissolved in 20% EtOH, 30% v/v Poly(ethylene glycol)-400, 5% v/v Tween 80):MilliQ water] to create a 2 mg/mL solution. The same formulation without analog was used as a vehicle control. The solution was sterilized using a […] Steriflip filter unit. C57BL/6 and R6/2 mice at ˜10 weeks of age, after onset of symptoms in R6/2 mice, were injected with ferrostatin analog or vehicle at a dose of 20 mg/kg daily for 30 days via IP and PO routes of administration. […] Mice were randomly assigned to each condition, weighed daily, the weight recorded, and the change in body weight compared to the baseline, pre-injection weight was calculated. Any mouse that lost more than 20% of its baseline body weight for three consecutive days was euthanized prior to the completion of the study. Injections occurred daily at the same time in the day to ensure consistency. Experimental blinding was achieved by separating the syringe preparation and the injection and data analysis components, with one researcher preparing the syringes and the other injecting the mice and analyzing the data. Unblinding occurred at the termination of the study after the completion of data analysis. Data were plotted and analyzed in Graph Pad Prism 9.0 with significance determined via Two Way ANOVA or Mixed-effects model with Tukey's test for multiple comparisons.
Symptomatic R6/2 and age-matched C57BL/6 wild type mice of both sexes at ˜10 weeks of age were dosed daily with 20 mg/kg of TH-4-55-2 via IP or PO for 30 days. Body weight was measured and recorded and the percent change in body weight from baseline calculated. Per IACUC guidelines, any mouse that lost more than 20% body weight for three days was euthanized prior to completion of the study.

[2] = Solubility in the in vivo injection vehicle; format: physicochemical; conditions: solution prepared for in vivo injection, no precipitation observed
Procedure: To achieve the 20 mg/kg dose for each compound, mice were injected with a 2 mg/mL solution in the vehicle described above.

| Compound | Rotarod latency to fall (R6/2 mice; PO 20 mg/kg, Day 25, 20 mg/kg) | accumulation in brain over plasma (R6/2 mice; PO and drinking water, 45-day course) | tolerability of chronic administration [1] | deaths after 30 days ([1]; IP administration) | deaths after 30 days ([1]; PO administration, 20 mg/kg) | protection against body weight loss ([1]; PO administration, 20 mg/kg) | Concentration (mM) [2] | Concentration (mg/mL) [2] | Catwalk gait: Base of Support (BOS) (R6/2 mice; PO, Day 25) | Catwalk gait: Cadence (R6/2 mice; PO, Day 25, Best performing mice) |
| --- | --- | --- | --- | --- | --- | --- | --- | --- | --- | --- |
| CCC(CC)Nc1cc(-c2nc(C)no2)cnc1NC1CCCCC1 [TH-4-55-2, N^2-cyclohexyl-5-(3-methyl-1,2,4-oxadiazol-5-yl)-N^3-(pentan-3-yl)pyridine-2,3-diamine] | consistently scored higher compared to control; also recorded: consistently higher mean latency to fall across trials compared to control | preferentially accumulated in the brain over plasma for both routes of administration | well-tolerated in a 30-day toxicity study in wild-type mice and symptomatic R6/2 HD mice; also recorded: non-toxic and well-tolerated by R6/2 mice | one TH-4-55-2-treated mouse died | one TH-4-55-2-treated mouse died; also recorded: one TH-4-55-2-treated mice died | protected from body weight loss over time; also recorded: showed protection against HD-related weight loss; also recorded: showed a significant protective effect; also recorded: appeared to have no loss in body weight during the injection series | 5.8 mM | 2 mg/mL |  |  |
| Cc1noc(-c2cnc(NC3CCCC3)c(NC3CCCC3)c2)n1 [TH-4-67, N^2,N^3-dicyclopentyl-5-(3-methyl-1,2,4-oxadiazol-5-yl)pyridine-2,3-diamine] |  |  | no detectable weight loss induced by either compound |  |  | didn't show this protective effect | 6.1 mM | 2 mg/mL | significant decrease in Base of Support (BOS); also recorded: significant improvement of BOS in the hind paws of least coordinated mice | the leading compound among this group |
| Cc1noc(-c2cnc(NC3CCCCC3)c(NC3CCCCC3)c2)n1 [TH-2-31, N^2,N^3-dicyclohexyl-5-(3-methyl-1,2,4-oxadiazol-5-yl)pyridine-2,3-diamine] |  |  | no detectable weight loss induced by either compound |  |  | didn't show this protective effect | 5.6 mM | 2 mg/mL | significantly worse BOS compared to Vehicle; also recorded: significantly worse performance |  |
